In test [1] the target is T1, TLR8 (Homo sapiens, UniProt Q9NR97).
T1 construct: expressed in transfected cells; host or cells: HEK/293 reporter cells (NF-kB luciferase)
T1 sequence (Q9NR97 27-1041): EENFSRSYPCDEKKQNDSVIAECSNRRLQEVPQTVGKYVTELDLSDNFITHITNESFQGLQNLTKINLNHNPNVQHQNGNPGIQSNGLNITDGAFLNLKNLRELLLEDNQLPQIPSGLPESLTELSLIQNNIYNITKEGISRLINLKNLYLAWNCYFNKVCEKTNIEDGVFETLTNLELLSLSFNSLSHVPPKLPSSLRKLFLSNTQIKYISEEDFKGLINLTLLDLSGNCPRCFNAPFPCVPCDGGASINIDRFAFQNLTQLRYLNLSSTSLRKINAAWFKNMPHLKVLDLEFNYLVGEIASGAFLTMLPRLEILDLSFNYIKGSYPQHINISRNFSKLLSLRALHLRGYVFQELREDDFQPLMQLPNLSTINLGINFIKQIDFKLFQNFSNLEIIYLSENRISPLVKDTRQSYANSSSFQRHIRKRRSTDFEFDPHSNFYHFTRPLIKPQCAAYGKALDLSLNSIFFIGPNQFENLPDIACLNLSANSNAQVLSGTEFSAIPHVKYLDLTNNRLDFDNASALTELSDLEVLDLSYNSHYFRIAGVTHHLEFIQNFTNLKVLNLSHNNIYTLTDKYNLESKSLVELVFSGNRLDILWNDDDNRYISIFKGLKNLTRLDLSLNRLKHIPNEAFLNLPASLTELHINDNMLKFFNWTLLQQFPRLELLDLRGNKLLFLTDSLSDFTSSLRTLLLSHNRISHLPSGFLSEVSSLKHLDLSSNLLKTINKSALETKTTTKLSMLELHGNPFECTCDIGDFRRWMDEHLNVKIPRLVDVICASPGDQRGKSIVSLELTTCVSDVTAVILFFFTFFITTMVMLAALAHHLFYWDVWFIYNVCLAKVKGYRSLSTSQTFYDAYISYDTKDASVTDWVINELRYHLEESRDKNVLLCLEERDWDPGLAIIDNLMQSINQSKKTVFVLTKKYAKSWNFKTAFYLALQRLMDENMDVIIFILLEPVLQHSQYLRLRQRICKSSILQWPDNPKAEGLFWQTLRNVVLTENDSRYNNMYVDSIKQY
Nature of the test: HEK/293 TLR8 Cell Assay. It is filed as cell-based. To be noted: HEK cells, R848 agonist 30 uM final concentration, Steady-Glo readout; read-out: TLR8 potency.

Test [2] has as its target T2, TLR7 (Homo sapiens, UniProt Q9NYK1).
T2 construct: expressed in transfected cells; host or cells: HEK/293 cells carrying TLR7 and an NF-kB luciferase reporter
T2 sequence (Q9NYK1 27-1049): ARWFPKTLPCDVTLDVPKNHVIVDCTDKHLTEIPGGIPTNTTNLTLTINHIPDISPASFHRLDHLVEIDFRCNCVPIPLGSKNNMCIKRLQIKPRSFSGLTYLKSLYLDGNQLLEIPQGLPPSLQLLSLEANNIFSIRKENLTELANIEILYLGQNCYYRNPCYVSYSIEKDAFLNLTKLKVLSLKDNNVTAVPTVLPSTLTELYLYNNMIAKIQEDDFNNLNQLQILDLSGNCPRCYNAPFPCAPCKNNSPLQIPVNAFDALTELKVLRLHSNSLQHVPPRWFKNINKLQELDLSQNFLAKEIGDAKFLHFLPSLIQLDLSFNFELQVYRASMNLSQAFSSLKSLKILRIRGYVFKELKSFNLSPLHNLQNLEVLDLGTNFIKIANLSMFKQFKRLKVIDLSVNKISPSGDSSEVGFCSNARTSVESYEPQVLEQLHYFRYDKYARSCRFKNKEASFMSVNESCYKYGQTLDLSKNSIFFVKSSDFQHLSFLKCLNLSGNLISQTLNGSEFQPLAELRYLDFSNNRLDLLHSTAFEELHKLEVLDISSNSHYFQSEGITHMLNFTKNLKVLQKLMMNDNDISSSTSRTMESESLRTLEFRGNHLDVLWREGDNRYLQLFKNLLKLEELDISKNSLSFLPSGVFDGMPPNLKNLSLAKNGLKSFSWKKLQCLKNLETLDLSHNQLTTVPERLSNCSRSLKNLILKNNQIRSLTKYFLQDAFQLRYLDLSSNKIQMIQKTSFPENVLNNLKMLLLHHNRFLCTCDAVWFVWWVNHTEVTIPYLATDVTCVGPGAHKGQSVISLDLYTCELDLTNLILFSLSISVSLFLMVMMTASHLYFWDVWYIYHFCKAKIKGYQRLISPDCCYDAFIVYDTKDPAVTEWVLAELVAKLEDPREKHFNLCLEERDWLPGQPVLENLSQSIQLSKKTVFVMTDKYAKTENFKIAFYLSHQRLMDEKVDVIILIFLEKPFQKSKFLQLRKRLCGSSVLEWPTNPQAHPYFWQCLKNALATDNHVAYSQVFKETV
Nature of the test: HEK/293 TLR7 Cell Assay. It is filed as cell-based. The following applies: TLR7/NFKb HEK cells, R848 agonist 10 uM final concentration, Steady-Glo readout; read-out: TLR7 potency. Put shortly: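 Compounds added to HEK cells expressing TLR7 with an NFκB reporter 30 min ahead of 10 uM R848 challenge; luciferase signal (Steady-Glo) measured after 5 h, cells having been seeded 24 h earlier at 5000 per well.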

Consider `C[C@@H]1CN(c2cnc(C(F)(F)F)c3ncccc23)C[C@H](CO)O1` [Example 383, [(2R,6R)-6-Methyl-4-(8-trifluoromethyl-[1,7]naphthyridin-5-yl)-morpholin-2-yl]-methanol], for which the IC50 in test [1] and in test [2] was greater than 150 nM throughout.

Consider `N#Cc1ccc(N2C[C@@H](C(F)(F)F)O[C@@H](C(=O)NC[C@]3(F)CCNC3)C2)c2cccnc12` (single isomer, unassigned) [Example 314], for which the IC50 in test [1] and in test [2] was greater than 150 nM in each case.

On to `C[C@@H]1CN(c2cnc(C#N)c3ncccc23)C[C@H](C(=O)NC2CCNCC2(F)F)O1` (stereo partly drawn) [Example 302, (2R,6R)-4-(8-Cyano-[1,7]naphthyridin-5-yl)-6-methyl-morpholine-2-carboxylic acid (3,3-difluoro-piperidin-4-yl)-amide], for which the IC50 in test [1] and in test [2] was greater than 150 nM throughout.

Consider `C[C@H]1C[C@@H](NC(=O)[C@@H](N)C(C)(C)O)CN(c2ccc(C(F)(F)F)c3ncccc23)C1` [Example 170, (S)-2-Amino-3-hydroxy-3-methyl-N-[(3R,5S)-5-methyl-1-(8-trifluoromethyl-quinolin-5-yl)-piperidin-3-yl]-butyramide], for which the IC50 in test [1] was less than 75 nM; in test [2], 75 to 150 nM.

In the case of `C[C@H]1C[C@@H](NCCN2CCOC2=O)CN(c2ccc(C(F)(F)F)c3ncccc23)C1` [Example 29, 3-{2-[(3R,5S)-5-Methyl-1-(8-trifluoromethyl-quinolin-5-yl)-piperidin-3-ylamino]-ethyl}-oxazolidin-2-one], the IC50 in test [1] and in test [2] was less than 75 nM each time.

As to `C[C@H]1C[C@@H](NC(=O)C2CCN(C(=O)[C@@H](N)[C@@H](C)O)CC2)CN(c2ccc(C(F)(F)F)c3ncccc23)C1` [Example 182, 1-((2S,3R)-2-Amino-3-hydroxy-butyryl)-piperidine-4-carboxylic acid [(3R,5S)-5-methyl-1-(8-trifluoromethyl-quinolin-5-yl)-piperidin-3-yl]-amide], the IC50 in test [1] and in test [2] was less than 75 nM each time.

`Cc1ccc(N2C[C@@H](C)C[C@@H](NC(=O)CN3CCN(C)CC3)C2)c2cccnc12` [Example 86, N-[(3R,5S)-5-methyl-1-(8-methylquinolin-5-yl)piperidin-3-yl]-2-(4-methylpiperazin-1-yl)acetamide]: the results for the IC50 in test [1] and in test [2] were less than 75 nM and 75 to 150 nM, respectively.

Take `C[C@H]1C[C@@H](NCC2(O)CCOCC2)CN(c2cnc(C(F)(F)F)c3ncccc23)C1` [Example 11, 4-{[(3R,5S)-5-Methyl-1-(8-trifluoromethyl-[1,7]naphthyridin-5-yl)-piperidin-3-ylamino]-methyl}-tetrahydro-pyran-4-ol]: the IC50 in test [1] and in test [2] was greater than 150 nM throughout.

As to `CN[C@@H](CO)C(=O)N[C@@H]1C[C@H](C)CN(c2ccc(C(F)(F)F)c3ncccc23)C1` [Example 168, (S)-3-Hydroxy-2-methylamino-N-[(3R,5S)-5-methyl-1-(8-trifluoromethyl-quinolin-5-yl)-piperidin-3-yl]-propionamide], the IC50 in test [1] was 75 to 150 nM; in test [2], greater than 150 nM.

For the compound `CCN(C)CCNC(=O)[C@H]1CN(c2ccc(C#N)c3nccnc23)C[C@@H](C)O1` [Example 244, (2R,6R)-4-(8-Cyano-quinoxalin-5-yl)-6-methyl-morpholine-2-carboxylic acid [2-(ethyl-methyl-amino)-ethyl]-amide], the IC50 in test [1] and in test [2] was less than 75 nM each time.

On to `C[C@H]1C[C@@H](NC(=O)[C@H](O)CO)CN(c2ccc(C#N)c3nccnc23)C1` [Example 160, (R)—N-[(3R,5S)-1-(8-Cyano-quinoxalin-5-yl)-5-methyl-piperidin-3-yl]-2,3-dihydroxy-propionamide], for which the IC50 in test [1] and in test [2] was less than 75 nM in each case.

With `C[C@H]1C[C@@H](NC(=O)C[C@H](O)CN(C)C)CN(c2ccc(C#N)c3nccnc23)C1` [Example 210, (3S)—N-[(3R,5S)-1-(8-cyanoquinoxalin-5-yl)-5-methylpiperidin-3-yl]-4-(dimethylamino)-3-hydroxybutanamide], the IC50 in test [1] and in test [2] was less than 75 nM each time.

With `C[C@@H]1CN(c2ccc(C#N)c3nccnc23)C[C@H](CNC(=O)[C@H](C)O)O1` (single isomer, unassigned) [Example 341], the IC50 in test [1] was less than 75 nM; in test [2], greater than 150 nM.

Regarding `C[C@@H]1CN(c2cnc(C#N)c3ncccc23)C[C@H](CN2CCNCC2)O1` [Example 366, 5-((2R,6S)-2-Methyl-6-piperazin-1-ylmethyl-morpholin-4-yl)-[1,7]naphthyridine-8-carbonitrile], the IC50 in test [1] and in test [2] was less than 75 nM each time.

Take `C[C@@H]1CN(c2ccc(C#N)c3nccnc23)C[C@H](CSCC(O)CO)O1` (stereo partly drawn) [Example 227, 8-[(2R,6R)-2-(2,3-Dihydroxy-propylsulfanylmethyl)-6-methyl-morpholin-4-yl]-quinoxaline-5-carbonitrile]: the IC50 is less than 75 nM in test [1] and 75 to 150 nM in test [2].

In the case of `C[C@@H]1CN(c2ccc(C#N)c3nccnc23)C[C@H](C(=O)NCCN2CCOCC2)O1` [Example 265, (2R,6R)-4-(8-cyanoquinoxalin-5-yl)-6-methyl-N-[2-(morpholin-4-yl)ethyl]morpholine-2-carboxamide], the IC50 in test [1] and in test [2] was less than 75 nM each time.

On to `C[C@H]1C[C@@H](NC(=O)C2(F)CCNC2)CN(c2ccc(C(F)(F)F)c3ncccc23)C1` (stereo partly drawn) [Example 205, 3-fluoro-N-[(3R,5S)-5-methyl-1-[8-(trifluoromethyl)quinolin-5-yl]piperidin-3-yl]pyrrolidine-3-carboxamide], for which the IC50 in test [1] and in test [2] was less than 75 nM each time.

As for `C[C@H]1C[C@@H](NCCC(=O)NC2CS(=O)(=O)C2)CN(c2ccc(C(F)(F)F)c3ncccc23)C1` [Example 54, N-(1,1-Dioxo-1lambda6-thietan-3-yl)-3-[(3R,5S)-5-methyl-1-(8-trifluoromethyl-quinolin-5-yl)-piperidin-3-ylamino]-propionamide], the IC50 in test [1] and in test [2] was less than 75 nM each time.

`N#Cc1ncc(N2C[C@@H](C(=O)NC[C@]3(F)CCNC3)O[C@@H](C(F)(F)F)C2)c2cccnc12` (single isomer, unassigned) [Example 319]: the IC50 in test [1] and in test [2] was less than 75 nM each time.

`O=C(N[C@@H]1C[C@H](C(F)(F)F)CN(c2ccc(C(F)(F)F)c3ncccc23)C1)[C@@H]1CCCN1` [Example 123, (2S)—N-[(3R,5S)-5-(trifluoromethyl)-1-[8-(trifluoromethyl)quinolin-5-yl]piperidin-3-yl]pyrrolidine-2-carboxamide]: the IC50 is less than 75 nM in test [1] and 75 to 150 nM in test [2].
